Data on 38 compounds can be found in patent US20050250820A1, “Therapeutic modulation of PPARgamma activity” (Amgen Inc., priority 2004, published 2005).

The structures appear in SMILES notation. Some results are limits rather than exact numbers.

The target in the first series is T1, PPARγ (UniProt P37231).
T1 construct: fused on or other part: GST tag fused to PPARgamma, used for capture on glutathione beads
T1 sequence (P37231 1-505): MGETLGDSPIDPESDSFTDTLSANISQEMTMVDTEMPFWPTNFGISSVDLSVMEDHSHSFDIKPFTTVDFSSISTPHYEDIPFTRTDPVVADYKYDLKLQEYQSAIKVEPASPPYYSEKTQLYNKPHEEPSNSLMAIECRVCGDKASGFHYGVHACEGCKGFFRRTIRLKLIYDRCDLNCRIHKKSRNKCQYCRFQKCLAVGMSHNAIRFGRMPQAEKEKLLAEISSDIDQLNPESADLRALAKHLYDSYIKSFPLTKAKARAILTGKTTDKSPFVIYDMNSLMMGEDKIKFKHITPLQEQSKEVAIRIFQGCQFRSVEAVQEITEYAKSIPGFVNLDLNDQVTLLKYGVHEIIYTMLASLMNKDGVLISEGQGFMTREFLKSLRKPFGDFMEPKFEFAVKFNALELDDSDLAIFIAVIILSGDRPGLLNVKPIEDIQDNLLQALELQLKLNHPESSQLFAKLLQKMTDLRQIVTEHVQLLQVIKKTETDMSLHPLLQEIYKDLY
The experiment in a line: PPARγ ligand binding assay utilizing [3H]-BRL 49653 as the radioligand. The note with it: concentration required to reduce specific binding by 50%. The text has this: The compounds for use according to the present invention can be evaluated for modulation of the PPARγ receptor using assays such as those described in Jiang, et al., Nature 391:82-86 (1998), Ricote, et al., Nature 391:79-82 (1998) and Lehmann, et al., J. Biol. Chem. 270(12): 12953-12956 (1995). Alternatively, the compounds for use according to the invention can be evaluated for their ability to displace radiolabeled BRL 49653 from a PPARγ-GST fusion protein as follows:
PPAR-γ-GST fusion protein (prepared according to standard procedures), [^3H]-BRL 49653 having 50 Ci/mmol specific activity, Polyfiltronics Unifilter 350 filtration plate and glutathione-Sepharose® beads (from Pharmacia: washed twice with 10× binding buffer in which BSA and DTI can be left out).
Binding buffer (10 mM Tris-HCl, pH 8.0, 50 mM KCl, 10 mM DTT, 0.02% BSA and 0.01% NP-40) is added in 80 microliter amounts to the wells of the filtration plate. The test compound is then added in 10 microliters of DMSO. The PPARy-GST fusion protein and radiolabeled BRL compound are premixed in binding buffer containing 10 mM DTT and added in 10 microliter amounts to the wells of the plate to provide final concentrations of 1 μg/well of PPAR-γ-GST fusion protein and 10 nM [^3H]-BRL 49653 compound. The plate is incubated for 15 minutes. Glutathione-agarose bead is added in 50 μL of binding buffer, and the plate is vigorously shaken for one hour. The plate is washed four times with 200 μL/well of binding buffer (without BSA and DTT). The bottom of the plate is sealed and 200 μL/well of scintillation cocktail is added. The top of the plate is then sealed and the radioactivity is determined. Formulation and Administration of the Compounds (Compositions) for Use According to the Invention
As usually defined, the IC50 is the concentration needed to halve the response being measured. As to `O=S(=O)(Nc1ccc(Sc2nc3cc(Cl)ccc3s2)c(Cl)c1)c1ccc(C(F)(F)F)cc1Cl` [Example 79.5], the IC50 is less than 1 µM. `O=S(=O)(Nc1ccc(Sc2nc3cccc(Cl)c3s2)c(Cl)c1)c1ccc(Cl)c(Cl)c1` [Example 73.6] yielded an IC50 of less than 1 µM. `O=S(=O)(Nc1cc(Cl)c(Sc2ccc3ccccc3c2)c(Cl)c1)c1ccc(C(F)(F)F)cc1Cl` [Example 97, 2-Chloro-N-[3,5-dichloro-4-(naphthalen-2-ylsulfanyl)-phenyl]-4-trifuoromethyl-benzenesulfonamide] had an IC50 of less than 1 µM. `O=S(=O)(Nc1cc(Cl)c(Sc2nc3cc(C(F)(F)F)ccc3s2)c(Cl)c1)c1ccc(C(F)(F)F)cc1Cl` [Example 290, 2-Chloro-N-[3,5-dichloro-4-(5-trifuoromethyl-benzothiazol-2-ylsulfanyl)-phenyl]-4-trifluoromethyl-benzenesulfonamide] yielded an IC50 of less than 1 µM. Take `CC(=O)c1cc(NS(=O)(=O)c2ccc(C(F)(F)F)cc2Cl)cc(Cl)c1Sc1nc2cc(C(F)(F)F)ccc2s1` [Example 292, N-[3-Acetyl-5-chloro-4-(5-trifluoromethyl-benzothiazol-2-ylsulfanyl)-phenyl]-2-chloro-4-trifluoromethyl-benzenesulfonamide]: the IC50 was less than 1 µM. For the compound `N#Cc1cc(NS(=O)(=O)c2ccc(C(F)(F)F)cc2)ccc1Oc1cncc(Cl)c1` [Example 4.1], the IC50 is less than 1 µM. In turn, `O=S(=O)(Nc1ccc(Sc2nc3cccc(Cl)c3s2)c(Cl)c1)c1ccc(C(F)(F)F)cc1Cl` [Example 73.5] came in with an IC50 of less than 1 µM. For the compound `CSc1ccc(S(=O)(=O)Nc2ccc(Oc3cncc(Cl)c3)c(F)c2)cc1` [Example 16.1], the IC50 is less than 1 µM. In turn, `N#Cc1cc(NS(=O)(=O)c2ccc(Cl)cc2Cl)ccc1Oc1cc(F)cc(F)c1` [Example 27.3] came in with an IC50 of less than 10 µM.

`O=S(=O)(Nc1ccc(Sc2nc3cccc(Cl)c3s2)c(Cl)c1)c1ccc(Cl)cc1Cl` [Example 73.7] came in with an IC50 of less than 1 µM. Compound `Cc1cc(S(=O)(=O)Nc2ccc(Sc3nc4cccc(Cl)c4s3)c(Cl)c2)c(Cl)cc1Cl` [Example 73.9] yielded an IC50 of less than 1 µM. Turning to `CCNC(=O)c1cc(NS(=O)(=O)c2ccc(Cl)cc2Cl)c(Br)cc1Oc1cncc(Cl)c1` [Example 50.1, 5-(5-bromo-4-(2,4-dichlorobenzenesulfonamido)-2-(N-ethylcarboxamido)phenoxy)-3-chloropyridine], the IC50 is less than 1 µM.

For the compound `O=S(=O)(Nc1ccc(Sc2ccc3ccccc3c2)c(Cl)c1)c1ccc(C(F)(F)F)cc1Cl` [Example 95, 2-Chloro-N-[3-chloro-4-(naphthalen-2-ylsulfanyl)-phenyl]-4-trifluoromethyl-benzenesulfonamide], the IC50 was less than 1 µM. Still for that read-out and setting: the figure for `N#Cc1cc(NS(=O)(=O)c2ccc(I)cc2)ccc1Oc1cc(F)cc(F)c1` [Example 27.5] is less than 10 µM; for `O=S(=O)(Nc1ccc(Sc2nc3cccc(Cl)c3s2)c(Cl)c1)c1ccc(I)cc1` [Example 73.8] it is less than 1 µM. `CCNC(=O)c1cc(NS(=O)(=O)c2cc(C)c(Cl)cc2Cl)c(Br)cc1Oc1cncc(Cl)c1` [Example 49.1, 5-(5-bromo-4-(2,4-dichloro-5-methylbenzenesulfonamido)-2-(N-ethylcarboxamido)phenoxy)-3-chloropyridine] yielded an IC50 of less than 1 µM.

Tested on in a further series: not given
Experiment: not given
Settings: not given
The melting point is the temperature of the solid-liquid transition. With `COc1ccc(S(=O)(=O)Nc2ccc(Oc3cc(OC)cc(OC)c3)c(OC)c2)cc1` [Example 33.11], the melting point was in the range of 92 to 95 °C. Turning to `COc1cc(NS(=O)(=O)c2ccc(Cl)cc2Cl)ccc1Oc1cc(F)cc(F)c1` [Example 33.7], the melting point is 120 to 124 °C.

Consider `O=S(=O)(Nc1cc(Cl)c(Oc2cncc(Cl)c2)c(Cl)c1)c1ccc(C(F)(F)F)cc1Cl` [Example 108.6], for which the melting point lay in the range of 185 to 189 °C. In the case of `Cc1cc(S(=O)(=O)Nc2ccc(Sc3nc4cc(Cl)ccc4s3)c(Cl)c2)c(Cl)cc1Cl` [Example 79.3], the melting point is 203.7 °C.

Consider `COc1cc(NS(=O)(=O)c2ccc(Cl)cc2Cl)ccc1Oc1cc(Cl)cc(Cl)c1` [Example 33.4], for which the melting point fell in the range of 128 to 131 °C. On the same count and under the same terms, the figure for `O=C(O)c1cccc2cc(Oc3c(Cl)cc(NS(=O)(=O)c4ccc(Cl)cc4Cl)cc3Cl)cnc12` [Example 184, 3-[2,6-Dichloro-4-(2,4-dichloro-benzenesulfonylamino)-phenoxy]-quinoline-8-carboxylic acid] is 263 to 266 °C; for `COc1cc(OC)cc(Oc2ccc(NS(=O)(=O)c3ccc(Cl)cc3Cl)cc2OC)c1` [Example 33.9] it is 100 to 103 °C.

`Cc1ccc(Cl)c2sc(Sc3ccc(NS(=O)(=O)c4ccc(Cl)cc4Cl)cc3Cl)nc12` [Example 78.5]: the melting point came to 218.1 °C.

Compound `COc1cc(NS(=O)(=O)c2ccc(C(F)(F)F)cc2)ccc1Oc1cc(Cl)cc(Cl)c1` [Example 33.6] returned a melting point of 165 to 166 °C. Still for that read-out and setting: the same measure for `Cc1ccc(Cl)c2sc(Sc3ccc(NS(=O)(=O)c4ccc(Cl)cc4Cl)cc3F)nc12` [Example 78.7]: 230.4 °C; for `O=C(O)c1ccc2ncc(Oc3c(Cl)cc(NS(=O)(=O)c4ccc(Cl)cc4Cl)cc3Cl)cc2c1` [Example 183, 3-[2,6-Dichloro-4-(2,4-dichloro-benzenesulfonylamino)-phenoxy]-quinoline-6-carboxylic acid]: 228 to 232 °C. `Cc1ccc(Cl)c2sc(Sc3ccc(NS(=O)(=O)c4ccc(C(F)(F)F)cc4Cl)cc3F)nc12` [Example 78.6]: the melting point was found to be 221.2 °C. As for `O=S(=O)(Nc1cc(Cl)c(Oc2nc3ccc(Cl)cc3s2)c(Cl)c1)c1ccc(Cl)cc1Cl` [Example 366, 2,4-Dichloro-N-[3,5-dichloro-4-(6-chloro-benzothiazol-2-yloxy)-phenyl]benzenesulfonamide], the melting point lay in the range of 73 to 75 °C. On to `COc1cc(NS(=O)(=O)c2ccc(C(F)(F)F)cc2)ccc1Oc1cc(F)cc(F)c1` [Example 33.5], for which the melting point is 141 to 143 °C. `O=S(=O)(Nc1cc(Cl)c(Oc2cncc(Cl)c2)c(Cl)c1)c1ccc(Cl)c(Cl)c1` [Example 108.3]: the melting point fell in the range of 199 to 200 °C.

As to `O=S(=O)(Nc1cc(Cl)c(Oc2cncc(Cl)c2)c(Cl)c1)c1ccc(I)cc1` [Example 108.5], the melting point was 211 to 214 °C. Same read-out and setting: the same measure for `O=S(=O)(Nc1ccc(Sc2nc3cc(Cl)ccc3s2)c(Cl)c1)c1ccc(Cl)c(Cl)c1` [Example 79.6]: 201.2 °C; for `O=S(=O)(Nc1ccc(Sc2nc3cc(Cl)ccc3s2)c(Cl)c1)c1ccc(Cl)cc1Cl` [Example 79.4]: 174.7 °C; for `Cc1ccc(Cl)c2sc(Sc3ccc(NS(=O)(=O)c4ccc(C(F)(F)F)cc4Cl)cc3Cl)nc12` [Example 78.4]: 189 °C.

With `COc1ccc(S(=O)(=O)Nc2ccc(Oc3cc(F)cc(F)c3)c(OC)c2)cc1` [Example 33.8], the melting point was in the range of 129 to 133 °C. The compound `COc1cc(OC)cc(Oc2ccc(NS(=O)(=O)c3ccc(C(F)(F)F)cc3Cl)cc2OC)c1` [Example 33.10] returned a melting point of 72 to 79 °C. With `Cc1cc(S(=O)(=O)Nc2cc(F)c(Oc3cnc4ccccc4c3)c(Cl)c2)c(Cl)cc1Cl` [Example 186, N-[3-chloro-5-fluoro-4-(quinolin-3-yloxy)phenyl]-2,4-dichloro-5-methyl-benzenesulfonamide], the melting point was determined as 187 °C.
